Laboratory results published in patent US12559461B2, “Antibiotic adjuvant compounds” (UNIVERSITY OF NOTRE DAME DU LAC, priority 2020, dated 2026).
Like-named read-outs stand apart in the source and are kept apart here.

Legend:
Type in all cases: cell-based, Acinetobacter baumannii
[1] = tested on: A. baumannii isolates (23 strains); assay: Clarithromycin potentiation against AB isolates; conditions: adjuvant at 10 μM
Description: Broth microdilution method for antibiotic potentiation. Day cultures (6 h) of bacteria in CAMHB were subcultured to 5×10^5 CFU/mL in CAMHB. Aliquots (4 mL) were placed in culture tubes and dosed with compound from 10 mM stock samples to give the desired concentration of the compound to be tested against the particular bacterial strain; this insured non-toxic DMSO concentrations ≤0.3% in each well. 1 mL of the resulting solution was placed in a separate culture and dosed with antibiotic at the highest concentration to be tested. Bacteria treated with antibiotic alone served as the control. Row one of a 96-well plate was filled with 200 μL of the antibiotic/2-AI solution, and rows 2-12 were filled with 100 μL each of the remaining 4 mL of bacterial subculture containing adjuvant at the desired concentration, except for the control lane which contained only bacterial subculture. Row one was then mixed five times, and 100 μL was transferred to row two, which was then mixed five times before being transferred to row three. This process was repeated until all rows had been mixed, except for row twelve which would have only 2-AI to serve as a control to monitor potential toxicity. The 96-well plate was then covered in Glad Press n'Seal and incubated under stationary conditions at 37° C. for 16 h. MIC values were determined as the lowest concentration at which no bacterial growth was observed, and fold reductions were determined by comparison to antibiotic control lane.

[2] = tested on: A. baumannii isolates (23 strains); assay: Minimum inhibitory concentration against AB isolates; conditions: Acinetobacter baumannii, compound alone
Description: Broth microdilution method for MIC determination. Day cultures (6 h) of each bacterial strain in cation adjusted Mueller Hinton II broth (CAMHB, Fisher Scientific U.S.) were subcultured to 5×10^5 CFU/mL in CAMHB. Aliquots (1 mL) were placed in culture tubes and compound was added from 10 mM stock samples in DMSO, such that compound concentration equaled highest concentration tested (200 μM). Samples were then aliquoted (200 μL) into the first wells of a 96-well plate, with all remaining wells being filled with 100 μL of initial bacterial subculture. Row one wells were mixed five times, before 100 μL was transferred to row two. Row two was then mixed five times, and 100 μL was transferred to row three. This process was repeated until the final row had been mixed; this served to serially dilute the compound. Plates were then covered with GLAD Press n'Seal and incubated under stationary conditions at 37° C. for 16 h. MIC values were then recorded as the lowest concentration at which no bacterial growth was observed.

AB5075 [3] = assay: Broth microdilution clarithromycin (CLR) potentiation and dose-response of adjuvant
How it was run: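 A. baumannii AB5075 at 5×10^5 CFU/mL in CAMHB with fixed adjuvant (DMSO ≤0.3%) and two-fold serially diluted clarithromycin or colistin, stationary 16 h at 37° C. MIC = lowest concentration without visible growth; fold reduction versus antibiotic alone. Dose-response used adjuvant at 0–30 μM.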

AB5075 [4] = assay: Broth microdilution MIC of compound alone (standalone toxicity)
How it was run: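 A. baumannii 5075 subcultured to 5×10^5 CFU/mL in cation-adjusted Mueller-Hinton broth; compound twofold serially diluted from 200 μM (DMSO stock) and incubated stationary at 37° C for 16 h. MIC taken as lowest concentration with no visible growth; duplicates, repeated at least twice.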

`Cl.Nc1nc(-c2ccc(NC(=O)c3ccc(Cl)c(Cl)c3)cc2F)c[nH]1` [Compound 15b, N-(4-(2-amino-1H-imidazol-4-yl)-3-fluorophenyl)-3,4-dichlorobenzamide hydrochloride] was tested, and the “CLR MIC + adjuvant” value ([1]; A. baumannii strain 3560) was 2 µg/mL, the “CLR MIC + adjuvant” value ([1]; A. baumannii strain 3785) was 4 µg/mL and the “CLR MIC + adjuvant” value ([1]; A. baumannii strain 3806) was 0.5 µg/mL. The “CLR MIC + adjuvant” value ([1]; A. baumannii strain 3927) was 2 µg/mL, the “CLR MIC + adjuvant” value ([1]; A. baumannii strain 4025) was 1 µg/mL and the “CLR MIC + adjuvant” value ([1]; A. baumannii strain 4026) was 4 µg/mL. For the same molecule, the “CLR MIC + adjuvant” value ([1]; A. baumannii strain 4027) was 1 µg/mL, the “CLR MIC + adjuvant” value ([1]; A. baumannii strain 4052) was 1 µg/mL and the “CLR MIC + adjuvant” value ([1]; A. baumannii strain 4269) was 2 µg/mL. The “CLR MIC + adjuvant” value ([1]; A. baumannii strain 4448) was 2 µg/mL, the “CLR MIC + adjuvant” value ([1]; A. baumannii strain 4456) was 2 µg/mL and the “CLR MIC + adjuvant” value ([1]; A. baumannii strain 4490) was 2 µg/mL. For the same molecule, the “CLR MIC + adjuvant” value ([1]; A. baumannii strain 4498) was 2 µg/mL, the “CLR MIC + adjuvant” value ([1]; A. baumannii strain 4795) was 2 µg/mL and the “CLR MIC + adjuvant” value ([1]; A. baumannii strain 4857) was 1 µg/mL. The “CLR MIC + adjuvant” value ([1]; A. baumannii strain 4878) was 2 µg/mL, the “CLR MIC + adjuvant” value ([1]; A. baumannii strain 4957) was 4 µg/mL and the “CLR MIC + adjuvant” value ([1]; A. baumannii strain 4991) was 2 µg/mL. For the same molecule, the “CLR MIC + adjuvant” value ([1]; A. baumannii strain 5001) was 4 µg/mL, the “CLR MIC + adjuvant” value ([1]; A. baumannii strain 5197) was 2 µg/mL and the “CLR MIC + adjuvant” value ([1]; A. baumannii strain 5256) was 1 µg/mL. The “CLR MIC + adjuvant” value ([1]; A. baumannii strain 5711) was 4 µg/mL, the “CLR MIC + adjuvant” value ([1]; A. baumannii strain 8967) was 1 µg/mL and the MIC ([2]; A. baumannii strain 3560, read-out: Minimum inhibitory concentration of compound) was 50 µM. It also gave an MIC ([2]; A. baumannii strain 3785, read-out: Minimum inhibitory concentration of compound) of 200 µM, an MIC ([2]; A. baumannii strain 3806, read-out: Minimum inhibitory concentration of compound) of 200 µM and an MIC ([2]; A. baumannii strain 3927, read-out: Minimum inhibitory concentration of compound) greater than 200 µM. It also gave an MIC ([2]; A. baumannii strain 4025, read-out: Minimum inhibitory concentration of compound) of 100 µM, an MIC ([2]; A. baumannii strain 4026, read-out: Minimum inhibitory concentration of compound) of 100 µM and an MIC ([2]; A. baumannii strain 4027, read-out: Minimum inhibitory concentration of compound) of 200 µM. For the same molecule, the MIC ([2]; A. baumannii strain 4052, read-out: Minimum inhibitory concentration of compound) was greater than 200 µM, the MIC ([2]; A. baumannii strain 4269, read-out: Minimum inhibitory concentration of compound) was greater than 200 µM and the MIC ([2]; A. baumannii strain 4448, read-out: Minimum inhibitory concentration of compound) was greater than 200 µM. For the same molecule, the MIC ([2]; A. baumannii strain 4456, read-out: Minimum inhibitory concentration of compound) was 50 µM, the MIC ([2]; A. baumannii strain 4490, read-out: Minimum inhibitory concentration of compound) was greater than 200 µM and the MIC ([2]; A. baumannii strain 4498, read-out: Minimum inhibitory concentration of compound) was 100 µM. The MIC ([2]; A. baumannii strain 4795, read-out: Minimum inhibitory concentration of compound) was 100 µM, the MIC ([2]; A. baumannii strain 4857, read-out: Minimum inhibitory concentration of compound) was 50 µM and the MIC ([2]; A. baumannii strain 4878, read-out: Minimum inhibitory concentration of compound) was 200 µM. The MIC ([2]; A. baumannii strain 4957, read-out: Minimum inhibitory concentration of compound) was greater than 200 µM, the MIC ([2]; A. baumannii strain 4991, read-out: Minimum inhibitory concentration of compound) was greater than 200 µM and the MIC ([2]; A. baumannii strain 5001, read-out: Minimum inhibitory concentration of compound) was greater than 200 µM. For the same molecule, the MIC ([2]; A. baumannii strain 5197, read-out: Minimum inhibitory concentration of compound) was greater than 200 µM, the MIC ([2]; A. baumannii strain 5256, read-out: Minimum inhibitory concentration of compound) was greater than 200 µM and the MIC ([2]; A. baumannii strain 5711, read-out: Minimum inhibitory concentration of compound) was greater than 200 µM. It also gave an MIC ([2]; A. baumannii strain 8967, read-out: Minimum inhibitory concentration of compound) greater than 200 µM, an MIC ([2]; remaining 20 strains, read-out: MIC values) of no less than 100 µM and an MIC ([2]; three of the AB isolates, read-out: MIC values) of 50 µM. For the same molecule, the “CLR MIC” value (AB5075 [3]; compound tested at 5 μM) was 8 µg/mL, the “Fold Reduction of CLR MIC” value (AB5075 [3]; compound tested at 5 μM) was 4 fold and the “CLR MIC” value (AB5075 [3]; compound tested at 7.5 μM) was 1 µg/mL. The “Fold Reduction of CLR MIC” value (AB5075 [3]; compound tested at 7.5 μM) was 32 fold, the “CLR MIC” value (AB5075 [3]; compound tested at 10 μM) was 0.5 µg/mL and the “Fold Reduction of CLR MIC” value (AB5075 [3]; compound tested at 10 μM) was 64 fold. For the same molecule, the “CLR MIC” value (AB5075 [3]; compound tested at 20 μM) was 0.5 µg/mL, the “Fold Reduction of CLR MIC” value (AB5075 [3]; compound tested at 20 μM) was 64 fold and the “CLR MIC” value (AB5075 [3]; compound tested at 30 μM) was 0.5 µg/mL. The “Fold Reduction of CLR MIC” value (AB5075 [3]; compound tested at 30 μM) was 64 fold, the MIC (AB5075 [4]; Acinetobacter baumannii) was greater than 200 µM and the MIC (AB5075 [4]; hydrochloride) was greater than 200 µM.
